Measurements from ChEMBL document CHEMBL1144017, “Novel AMPA and kainate receptor antagonists containing the pyrazolo[1,5-c]quinazoline ring system: Synthesis and structure-activity relationships” (Bioorg Med Chem, 2008).

Experiments:
Rattus norvegicus [1] = species on record: Rattus norvegicus; experiment: Ratio of Ki for rat NMDA receptor to Ki for rat AMPA receptor
[2] = Displacement of [3H]AMPA from AMPA receptor in rat cortical membrane; type: cell membranes
[3] = Displacement of [3H]kainate from KA receptor in rat cortical membrane; type: cell membranes
Glutamate NMDA receptor = experiment: Displacement of [3H]glycine from NMDA receptor in rat cortical membrane; type: cell membranes
Rattus norvegicus [4] = species on record: Rattus norvegicus; experiment: Displacement of [3H]AMPA from AMPA receptor in rat cortical membrane at 100 uM; type: cell membranes
Rattus norvegicus [5] = species on record: Rattus norvegicus; experiment: Displacement of [3H]kainate from KA receptor in rat cortical membrane at 100 uM; type: cell membranes
[6] = target: Glutamate NMDA receptor (Rattus norvegicus) (UniProt P35439+Q00959+Q00960+Q00961+Q62645+Q8VHN2+Q9R1M7); experiment: Displacement of [3H]glycine from NMDA receptor in rat cortical membrane at 100 uM; type: cell membranes
[7] = target: AMPA receptor (Mus musculus); experiment: Antagonist activity at AMPA receptor assessed as inhibition of AMPA-induced depolarization in mouse cortical wedge preparation by electrophysiology assay
[8] = target: Glutamate NMDA receptor (Mus musculus); experiment: Antagonist activity at NMDA receptor assessed as inhibition of NMDA-induced depolarization in mouse cortical wedge preparation by electrophysiology assay

Row | Ratio Ki (Rattus norvegicus [1]) | Ki [2] [µM] | IC50 [3] [µM] | Ki (Glutamate NMDA receptor) [µM] | Activity (Rattus norvegicus [4]) [%] | Activity (Rattus norvegicus [5]) [%] | Activity [6] [%] | IC50 [7] [µM] | IC50 [8] [µM] | Compound
1 | 20.7 | 1.3 | 0.52 | 27 |  |  |  |  |  | O=C(O)c1ccccc1C(=O)Nc1cc2c(cc1Cl)[nH]c(=O)n1nc(C(=O)O)c(C(=O)O)c21
2 | 0.4 |  |  | 36.2 | 45 | 16 |  |  |  | CCOC(=O)c1nn2c(=O)[nH]c3cc(Cl)c([N+](=O)[O-])cc3c2c1[N+](=O)[O-]
3 | 1.9 | 1.3 | 94 | 2.5 |  |  |  |  |  | O=C(O)c1nn2c(=O)[nH]c3cc(Cl)c([N+](=O)[O-])cc3c2c1Cl
4 | 83 | 0.42 | 3 | 35 |  |  |  |  |  | O=C(Nc1cccc(C(=O)O)c1)Nc1cc2c(cc1Cl)[nH]c(=O)n1nc(C(=O)O)c(C(=O)O)c21
5 | 83.5 | 0.14 | 11 | 11.7 |  |  |  |  |  | O=C(Nc1ccccc1)Nc1cc2c(cc1Cl)[nH]c(=O)n1nc(C(=O)O)c(C(=O)O)c21
6 |  |  |  |  | 40 | 0 | 30 |  |  | CCOC(=O)c1nn2c(=O)[nH]c3cc(Cl)c([N+](=O)[O-])cc3c2c1C(=O)OCC
7 | 112 | 0.48 | 4.4 | 54 |  |  |  |  |  | O=C(O)CNC(=O)Nc1cc2c(cc1Cl)[nH]c(=O)n1nc(C(=O)O)c(C(=O)O)c21
8 | > 3.7 | 27 |  |  |  | 13 | 44 |  |  | CCNC(=O)Nc1cc2c(cc1Cl)[nH]c(=O)n1nc(C(=O)OCC)c(C(=O)OCC)c21
9 | 2 | 0.59 | 11.7 | 1.25 |  |  |  |  |  | O=C(O)c1nn2c(=O)[nH]c3cc(Cl)c([N+](=O)[O-])cc3c2c1C(=O)O
10 | > 80 | 1.2 | 82 |  |  |  | 18 | 5.8 | > 20 | CCOC(=O)c1nn2c(=O)[nH]c3cc(Cl)c(-n4cnnc4)cc3c2c1C(=O)OCC
11 |  |  |  |  | 44 | 0 | 19 |  |  | CCOC(=O)c1nn2c(=O)[nH]c3cc(Cl)c(NC(=O)NCc4ccccc4)cc3c2c1C(=O)OCC
12 | 73.3 | 0.56 | 9.8 | 41 |  |  |  |  |  | CCNC(=O)Nc1cc2c(cc1Cl)[nH]c(=O)n1nc(C(=O)O)c(C(=O)O)c21
13 | > 1.5 | 63 |  |  |  | 25 | 45 |  |  | CCOC(=O)c1nn2c(=O)[nH]c3cc(Cl)c([N+](=O)[O-])cc3c2c1Cl
14 |  | 0.48 | 17 | 31 |  |  |  |  |  | O=C(NCCc1ccccc1)Nc1cc2c(cc1Cl)[nH]c(=O)n1nc(C(=O)O)c(C(=O)O)c21
15 |  |  |  |  | 46 | 16 | 16 |  |  | CCOC(=O)c1nn2c(=O)[nH]c3cc(Cl)c(NC(=O)NC(Cc4ccccc4)C(=O)OC)cc3c2c1C(=O)OCC (racemic)
16 | 12.8 | 2.8 | 0.11 | 36 |  |  |  |  |  | CCOC(=O)c1nn2c(=O)[nH]c3cc(Cl)c(NC(=O)c4ccccc4C(=O)O)cc3c2c1C(=O)OCC
17 |  |  |  |  | 5 | 15 | 5 |  |  | CCOC(=O)c1ccc(NC(=O)Nc2cc3c(cc2Cl)[nH]c(=O)n2nc(C(=O)OCC)c(C(=O)OCC)c32)cc1

Row | Ratio Ki (Rattus norvegicus [1]) | Ki [2] [µM] | IC50 [3] [µM] | Ki (Glutamate NMDA receptor) [µM] | Activity (Rattus norvegicus [4]) [%] | Activity (Rattus norvegicus [5]) [%] | Activity [6] [%] | IC50 [7] [µM] | IC50 [8] [µM] | Compound
18 | 154 | 0.13 | 4.5 | 20 |  |  |  |  |  | O=C(O)c1nn2c(=O)[nH]c3cc(Cl)c(-n4cccc4)cc3c2c1C(=O)O
19 | > 2 | 48 |  |  |  | 12 | 13 |  |  | CCOC(=O)c1nn2c(=O)[nH]c3cc(Cl)c(-n4cccc4)cc3c2c1C(=O)OCC
20 | 28 | 3.5 |  | 99 |  | 24 |  |  |  | CCOC(=O)CCCNC(=O)Nc1cc2c(cc1Cl)[nH]c(=O)n1nc(C(=O)OCC)c(C(=O)OCC)c21
21 | 44 | 1.1 | 13 | 49 |  |  |  |  |  | O=C(Nc1ccc(C(=O)O)cc1)Nc1cc2c(cc1Cl)[nH]c(=O)n1nc(C(=O)O)c(C(=O)O)c21
22 | > 6 | 15.7 |  |  |  | 17 | 20 |  |  | CCOC(=O)c1nn2c(=O)[nH]c3cc(Cl)c(-n4ccc(C=O)c4)cc3c2c1C(=O)OCC
23 | > 1000 | 0.1 | 2.4 |  |  |  | 43 | 2.5 | > 10 | O=C(O)c1nn2c(=O)[nH]c3cc(Cl)c(-n4cnnc4)cc3c2c1C(=O)O
24 | 0.49 |  |  | 49 | 44 | 9 |  |  |  | CCOC(=O)c1nn2c(=O)[nH]c3cc(Cl)c(NC(=O)NCCc4ccccc4)cc3c2c1C(=O)OCC
25 |  |  |  |  | 20 | 0 | 11 |  |  | CCOC(=O)c1nn2c(=O)[nH]c3cc(Cl)c(NC(=O)Nc4ccccc4)cc3c2c1C(=O)OCC
26 | 129 | 0.47 | 40 | 61 |  |  |  |  |  | O=C(Nc1cc2c(cc1Cl)[nH]c(=O)n1nc(C(=O)O)c(C(=O)O)c21)NC(Cc1ccccc1)C(=O)O (racemic)
27 | 425 | 0.16 | 4.6 | 68 |  |  |  |  |  | O=C(O)CCNC(=O)Nc1cc2c(cc1Cl)[nH]c(=O)n1nc(C(=O)O)c(C(=O)O)c21
28 | 44 | 0.37 | 11 | 16.3 |  |  |  |  |  | O=C(NCc1ccccc1)Nc1cc2c(cc1Cl)[nH]c(=O)n1nc(C(=O)O)c(C(=O)O)c21
29 | > 26 | 3.8 |  |  |  | 32 | 32 |  |  | CCOC(=O)CCNC(=O)Nc1cc2c(cc1Cl)[nH]c(=O)n1nc(C(=O)OCC)c(C(=O)OCC)c21
30 | 1.7 | 11.9 |  | 20.5 |  | 29 |  |  |  | O=C(O)c1nn2c(=O)[nH]c3cc(Cl)c([N+](=O)[O-])cc3c2c1[N+](=O)[O-]
31 |  |  |  |  | 18 | 0 | 0 |  |  | CCOC(=O)c1cccc(NC(=O)Nc2cc3c(cc2Cl)[nH]c(=O)n2nc(C(=O)OCC)c(C(=O)OCC)c32)c1
32 | > 11 | 8.9 |  |  |  | 19 | 43 |  |  | CCOC(=O)CNC(=O)Nc1cc2c(cc1Cl)[nH]c(=O)n1nc(C(=O)OCC)c(C(=O)OCC)c21
33 |  | 0.14 |  |  |  |  |  |  |  | O=C(O)c1cc2c3cc(-n4cnnc4)c(Cl)cc3[nH]c(=O)n2n1
34 | 5 | 0.94 | 60 | 4.7 |  |  |  |  |  | CCOC(=O)c1c(C(=O)O)nn2c(=O)[nH]c3cc(Cl)c([N+](=O)[O-])cc3c12
